# Experimental data from article PMC8151276, “An Integrated Approach toward NanoBRET Tracers for Analysis of GPCR Ligand Engagement” (Molecules, 2021).
# Tests used:
# [1] = target: T1, CYSLTR1 (Homo sapiens, UniProt Q9Y271); assay: NanoBRET screen HiBiT-CYSLTR1 in HEK293; format: binding; settings: CYSLTR1; tracer 1μM
# T1 construct: purchased Promega (in-house HiBiT-GPCR construct library, NanoBRET)
# T1 sequence (Q9Y271 1-337): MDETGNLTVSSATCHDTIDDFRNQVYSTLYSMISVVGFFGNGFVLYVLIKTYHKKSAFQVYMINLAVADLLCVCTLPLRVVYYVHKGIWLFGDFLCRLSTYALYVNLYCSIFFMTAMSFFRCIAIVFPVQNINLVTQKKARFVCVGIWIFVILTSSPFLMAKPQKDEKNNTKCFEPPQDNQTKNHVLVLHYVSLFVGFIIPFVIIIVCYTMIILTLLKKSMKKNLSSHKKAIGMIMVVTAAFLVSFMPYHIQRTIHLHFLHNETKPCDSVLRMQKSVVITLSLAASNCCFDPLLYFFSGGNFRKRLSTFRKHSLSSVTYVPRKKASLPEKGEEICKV
# Protocol: (§1) Each tracer candidate was screened across the entire library of HiBiT-GPCR constructs using NanoBRET as the detection modality. As depicted in Figure 4A, the specificity of interactions was evaluated through decrease in BRET due to competitive displacement of a bound tracer by excess parental compound. Each tracer was analyzed for binding to each HiBiT-GPCR fusion in the absence and in the presence of competing parental compound. Briefly, HEK293 cells were transfected with HiBiT-GPCR constructs diluted into promoterless DNA to reduce expression and maximize translocation to the cell surface. Each tracer candidate was then screened at concentrations of 1 μM and 0.1 μM across cells expressing these fusions. Cells were treated for 1.5 h with tracer either alone or in the presence of 20 μM competing parental compound (i.e., control). BRET was measured upon addition of purified LgBiT and subsequent complementation with HiBiT genetically fused to a GPCR. The specificity of interactions was assessed through a decrease in BRET signal due to competitive displacement of the bound tracer. To further gauge the robustness of these interactions, the fold response over the control (i.e., BRETtracer/BRETcontrol) was calculated. We chose a 1.5-fold response, which translates to ≥7-fold signal over noise as the minimal threshold required to score an interaction as positive.
# (§2) HiBiT-GPCR DNA constructs were diluted in 10 mM Tris pH 8 to a final concentration of 0.01 μg/μL, arrayed in 96-well plates and stored at −20 °C. For transfection, HEK293 cells were suspended in Opti-MEM (without phenol red) supplemented with 2% fetal bovine serum (Seradigm) and 100 units/mL penicillin–streptomycin (Gibco) at a final concentration of 220,000 cells/mL and dispensed into white 96-well plates at 90 μL/well. Subsequent transfections and screens were carried using an Agilent Bravo Automated Liquid Handling Platform. First, the 96-well HiBiT DNA arrays were diluted 25-fold in Opti-MEM (without serum or phenol red) to a final concentration of 0.0004 μg/μL and 20 μL of the diluted DNAs were transferred into new 96-well plates. Next, promoterless carrier DNA (1 μg/μL) was diluted 25-fold (0.04 μg/μL) and then dispensed into the diluted arrays at 20 μL/well. Following brief mixing, Viafect transfection reagent (Promega) diluted 16-fold into Opti-MEM was dispensed into the plates at 40 μL/well. After mixing by pipetting, plates were incubated for 10 min on the pipetting station deck. The DNA-transfection reagent complexes were then added to plates containing cells. To facilitate the screen, 10 μL of DNA-transfection reagent complexes were added in duplicates to the top 4 and bottom 4 rows, resulting in two identical 48-well arrays per plate. Plates with transfected cells were incubated for 18–20 h at 37 °C/5% CO2. A screen of each tracer across the entire library using two different concentrations requires duplicate plates of transfected cells. Depending on the number of tracers being screened, transfections can be scaled up using the same ratios. The next day, for each tracer, four 20× screening solutions in tracer dilution buffer (Promega) were prepared: two duplicates at final concentration of 20 μM and two duplicates at a final concentration of 2 μM. […] The four resulting solutions were diluted 4-fold in Opti-MEM without serum or phenol red to generate 5× solutions (5 µM and 0.5 µM tracer +/− 100 μM competing compound). To screen the library, a BioTek MultiFlo FX liquid dispenser was used to dispense 22.5 µL of tracer solution to the top 4 rows and 22.5 µL tracer + competing compound solution to the 4 bottom rows. Plates were briefly mixed on an orbital shaker and incubated for 1.5 h at room temperature. […] Plates were briefly mixed on an orbital shaker and incubated for 15 min to allow complementation.
# [2] = target: T2, P2RY8 (Homo sapiens, UniProt Q86VZ1); assay: NanoBRET screen HiBiT-P2RY8 in HEK293; format: binding; settings: P2RY8
# T2 construct: purchased Promega (in-house HiBiT-GPCR construct library, NanoBRET)
# T2 sequence (Q86VZ1 whole entry): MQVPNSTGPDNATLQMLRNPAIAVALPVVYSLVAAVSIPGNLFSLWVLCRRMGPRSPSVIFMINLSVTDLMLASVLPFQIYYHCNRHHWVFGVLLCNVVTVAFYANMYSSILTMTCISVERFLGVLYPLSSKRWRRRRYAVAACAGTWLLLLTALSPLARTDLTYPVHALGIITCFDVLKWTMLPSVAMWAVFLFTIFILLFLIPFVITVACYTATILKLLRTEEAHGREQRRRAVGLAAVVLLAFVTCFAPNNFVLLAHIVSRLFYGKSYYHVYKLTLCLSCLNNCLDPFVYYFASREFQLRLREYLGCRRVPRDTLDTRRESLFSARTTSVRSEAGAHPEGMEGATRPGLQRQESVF
# Protocol: as §1, §2
structure (smiles),measurement,setting,value
CCCn1c(=O)c2[nH]c(-c3ccc(OCC(=O)NCCNC(=O)CCOCCNC(=O)c4ccc(CNC(=O)CCc5ccc6n5[B-](F)(F)[N+]5=C(c7ccc[nH]7)C=CC5=C6)cc4)cc3)nc2n(CCC)c1=O [XAC-3-NB590],NanoBRET Fold Response,[1],1.08
same,NanoBRET Fold Response,[2]; tracer 0.1μM,1.30
same,NanoBRET Fold Response,[2]; tracer 1μM,0.83
